Data reported in PubChem BioAssay AID2060500 (Molecular Pharmacology Branch, DTP, NCI, 2025).

System: 596521-263-R-J1-PDC complex spheroids, viability % of control
Assay: Anticancer human tumor 596521-263-R-J1-PDC patient-derived soft tissue sarcoma cell line growth inhibition [GQUAD]
Conditions: for IC50: curve of first compound; for viability, T/C: stronger effect = lower value; active = viability on the fitted dose curve at most 10% of control; inactive = the rest
Summary of the method: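 Multi-cell-type spheroids of tumor cells with HUVEC and mesenchymal stem cells, treated with drug combinations. Concentrations descend in half-log steps from near clinical Cmax, or from 10 microM where Cmax is unknown; viability read-out.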

[1] = second compound 0.0316 µM, first compound 0.0316 µM
[2] = second compound 0.0316 µM, first compound 0.1 µM
[3] = second compound 0.0316 µM, first compound 0.316 µM
[4] = second compound 0.0316 µM, first compound 1 µM
[5] = second compound 0.0316 µM, first compound 3.16 µM
[6] = second compound 0.0316 µM, first compound 10 µM
[7] = second compound 0.1 µM, first compound 0.0316 µM
[8] = second compound 0.1 µM, first compound 0.1 µM
[9] = second compound 0.1 µM, first compound 0.316 µM
[10] = second compound 0.1 µM, first compound 1 µM
[11] = second compound 0.1 µM, first compound 3.16 µM
[12] = second compound 0.1 µM, first compound 10 µM
[13] = second compound 0.316 µM, first compound 0.0316 µM
[14] = second compound 0.316 µM, first compound 0.1 µM
[15] = second compound 0.316 µM, first compound 0.316 µM
[16] = second compound 0.316 µM, first compound 1 µM
[17] = second compound 0.316 µM, first compound 3.16 µM
[18] = second compound 0.316 µM, first compound 10 µM
[19] = second compound 1 µM, first compound 0.0316 µM
[20] = second compound 1 µM, first compound 0.1 µM
[21] = second compound 1 µM, first compound 0.316 µM
[22] = second compound 1 µM, first compound 1 µM
[23] = second compound 1 µM, first compound 3.16 µM
[24] = second compound 1 µM, first compound 10 µM
[25] = second compound 3.16 µM, first compound 0.0316 µM
[26] = second compound 3.16 µM, first compound 0.1 µM
[27] = second compound 3.16 µM, first compound 0.316 µM
[28] = second compound 3.16 µM, first compound 1 µM
[29] = second compound 3.16 µM, first compound 3.16 µM
[30] = second compound 3.16 µM, first compound 10 µM
[31] = second compound 10 µM, first compound 0.0316 µM
[32] = second compound 10 µM, first compound 0.1 µM
[33] = second compound 10 µM, first compound 0.316 µM
[34] = second compound 10 µM, first compound 1 µM
[35] = second compound 10 µM, first compound 3.16 µM
[36] = second compound 10 µM, first compound 10 µM
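Note: spheroids exposed to drugs for 7 days before viability reading.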
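Throughout, for viability, T/C: 100% = DMSO vehicle control viability.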

Nc1ccn(C2OC(CO)C(O)C2(F)F)c(=O)n1 (stereo not drawn) + CN(C)c1ccc(Nc2c3ccc(NC(=O)CCN4CCCC4)cc3nc3cc(NC(=O)CCN4CCCC4)ccc23)cc1
121 nM: IC50 (second compound 0.316 µM)
< 31.6 nM: IC50 (second compound 0.0316 µM) | IC50 (second compound 0.1 µM) | IC50 (second compound 1 µM) | IC50 (second compound 3.16 µM) | IC50 (second compound 10 µM)
inactive: viability, T/C [1] 48.3% | viability, T/C [2] 39.2% | viability, T/C [3] 40.5% | viability, T/C [4] 37.3% | viability, T/C [5] 44.5% | viability, T/C [6] 40.2% | viability, T/C [7] 53.9% | viability, T/C [8] 42.2% | viability, T/C [9] 40% | viability, T/C [10] 39.1% | viability, T/C [11] 44.1% | viability, T/C [12] 38.1% | viability, T/C [13] 53.6% | viability, T/C [14] 46.6% | viability, T/C [15] 48.7% | viability, T/C [16] 49.8% | viability, T/C [17] 40.1% | viability, T/C [18] 39.4% | viability, T/C [19] 46.7% | viability, T/C [20] 41.5% | viability, T/C [21] 39.3% | viability, T/C [22] 42.2% | viability, T/C [23] 39% | viability, T/C [24] 40.5% | viability, T/C [25] 44.7% | viability, T/C [26] 44.2% | viability, T/C [27] 40.6% | viability, T/C [28] 42.5% | viability, T/C [29] 40.5% | viability, T/C [30] 35.6% | viability, T/C [31] 42.4% | viability, T/C [32] 37.4% | viability, T/C [33] 33.4% | viability, T/C [34] 35.2% | viability, T/C [35] 38% | viability, T/C [36] 38.2%

O=c1[nH]cc(F)c(=O)[nH]1 + Cc1cnc(CNC(=O)c2c(=O)c3ccc(N4CCCN(C)CC4)nc3n3c2sc2ccccc23)cn1
inactive: viability, T/C [1] 109% | viability, T/C [2] 112% | viability, T/C [3] 100% | viability, T/C [4] 99.7% | viability, T/C [5] 111% | viability, T/C [6] 84.7% | viability, T/C [7] 100% | viability, T/C [8] 84.9% | viability, T/C [9] 89.4% | viability, T/C [10] 88.5% | viability, T/C [11] 104% | viability, T/C [12] 87.4% | viability, T/C [13] 78.9% | viability, T/C [14] 82.8% | viability, T/C [15] 69.5% | viability, T/C [16] 72.5% | viability, T/C [17] 82.7% | viability, T/C [18] 76.7% | viability, T/C [19] 68.2% | viability, T/C [20] 66% | viability, T/C [21] 71.3% | viability, T/C [22] 72.2% | viability, T/C [23] 76% | viability, T/C [24] 69.9% | viability, T/C [25] 54.8% | viability, T/C [26] 59.9% | viability, T/C [27] 51.3% | viability, T/C [28] 49.8% | viability, T/C [29] 63.2% | viability, T/C [30] 51.4% | viability, T/C [31] 49% | viability, T/C [32] 49.6% | viability, T/C [33] 49.2% | viability, T/C [34] 49.4% | viability, T/C [35] 54.7% | viability, T/C [36] 47.6%
< 31.6 nM: IC50 (second compound 10 µM)
> 10000 nM: IC50 (second compound 0.0316 µM) | IC50 (second compound 0.1 µM) | IC50 (second compound 0.316 µM) | IC50 (second compound 1 µM) | IC50 (second compound 3.16 µM)

CC(C)n1c(=O)n(C)c2cnc3cc(F)c(-c4ccc(OCCCN5CCCCC5)nc4)cc3c21 + CN(C)c1ccc(Nc2c3ccc(NC(=O)CCN4CCCC4)cc3nc3cc(NC(=O)CCN4CCCC4)ccc23)cc1
inactive: viability, T/C [1] 104% | viability, T/C [2] 103% | viability, T/C [3] 100% | viability, T/C [4] 87.1% | viability, T/C [5] 84.1% | viability, T/C [6] 66.8% | viability, T/C [7] 104% | viability, T/C [8] 106% | viability, T/C [9] 91.8% | viability, T/C [10] 95.7% | viability, T/C [11] 92.4% | viability, T/C [12] 63.5% | viability, T/C [13] 111% | viability, T/C [14] 96.8% | viability, T/C [15] 103% | viability, T/C [16] 89.8% | viability, T/C [17] 84.7% | viability, T/C [18] 64.9% | viability, T/C [19] 99.8% | viability, T/C [20] 112% | viability, T/C [21] 100% | viability, T/C [22] 98.5% | viability, T/C [23] 96.9% | viability, T/C [24] 73.6% | viability, T/C [25] 90.7% | viability, T/C [26] 98% | viability, T/C [27] 91.2% | viability, T/C [28] 80.7% | viability, T/C [29] 77% | viability, T/C [30] 59.6% | viability, T/C [31] 70% | viability, T/C [32] 60.7% | viability, T/C [33] 57.4% | viability, T/C [34] 48.4% | viability, T/C [35] 43.6% | viability, T/C [36] 31.5%
899 nM: IC50 (second compound 10 µM)
> 10000 nM: IC50 (second compound 0.0316 µM) | IC50 (second compound 0.1 µM) | IC50 (second compound 0.316 µM) | IC50 (second compound 1 µM) | IC50 (second compound 3.16 µM)

Cn1ncnc1[C@H]1c2n[nH]c(=O)c3cc(F)cc(c23)N[C@@H]1c1ccc(F)cc1 + Cc1[nH]c2ccc(F)cc2c1-c1nc2c3cccnc3c3ncccc3c2[nH]1
> 316 nM: IC50 (second compound 0.0316 µM) | IC50 (second compound 0.1 µM) | IC50 (second compound 0.316 µM) | IC50 (second compound 1 µM) | IC50 (second compound 3.16 µM) | IC50 (second compound 10 µM)
inactive: viability, T/C (second compound 0.0316 µM, first compound 0.000999 µM) 89.4% | viability, T/C (second compound 0.0316 µM, first compound 0.00316 µM) 93.6% | viability, T/C (second compound 0.0316 µM, first compound 0.00999 µM) 90.2% | viability, T/C [1] 86.6% | viability, T/C (second compound 0.0316 µM, first compound 0.0999 µM) 95.2% | viability, T/C [3] 94.7% | viability, T/C (second compound 0.1 µM, first compound 0.000999 µM) 101% | viability, T/C (second compound 0.1 µM, first compound 0.00316 µM) 98.9% | viability, T/C (second compound 0.1 µM, first compound 0.00999 µM) 96.7% | viability, T/C [7] 110% | viability, T/C (second compound 0.1 µM, first compound 0.0999 µM) 94.1% | viability, T/C [9] 78.1% | viability, T/C (second compound 0.316 µM, first compound 0.000999 µM) 95.2% | viability, T/C (second compound 0.316 µM, first compound 0.00316 µM) 94.2% | viability, T/C (second compound 0.316 µM, first compound 0.00999 µM) 97.9% | viability, T/C [13] 89.5% | viability, T/C (second compound 0.316 µM, first compound 0.0999 µM) 80.4% | viability, T/C [15] 78.4% | viability, T/C (second compound 1 µM, first compound 0.000999 µM) 94.8% | viability, T/C (second compound 1 µM, first compound 0.00316 µM) 90.9% | viability, T/C (second compound 1 µM, first compound 0.00999 µM) 88.6% | viability, T/C [19] 83.5% | viability, T/C (second compound 1 µM, first compound 0.0999 µM) 85.9% | viability, T/C [21] 79.5% | viability, T/C (second compound 3.16 µM, first compound 0.000999 µM) 89.3% | viability, T/C (second compound 3.16 µM, first compound 0.00316 µM) 84.5% | viability, T/C (second compound 3.16 µM, first compound 0.00999 µM) 84.7% | viability, T/C [25] 77.7% | viability, T/C (second compound 3.16 µM, first compound 0.0999 µM) 81.8% | viability, T/C [27] 72.6% | viability, T/C (second compound 10 µM, first compound 0.000999 µM) 73.8% | viability, T/C (second compound 10 µM, first compound 0.00316 µM) 85.6% | viability, T/C (second compound 10 µM, first compound 0.00999 µM) 86.4% | viability, T/C [31] 76.5% | viability, T/C (second compound 10 µM, first compound 0.0999 µM) 72.5% | viability, T/C [33] 74.3%
